Patent US10849906B2, “Use of Akt2 in diagnosis and treatment of tumor” (priority 2015, dated 2020)

How the values were obtained:
[1] = test system: Jurkat cells; experiment: Apoptosis by Annexin V-FITC PI double staining, Jurkat; assay type: cell-based, human; details: for apoptosis of siRNA-transfected Jurkat cells induced by dexamethasone: compared to the dexamethasone group, FIG. 5H; for apoptosis of Jurkat cells, inhibitor in combination with dexamethasone: compared to the only/single dexamethasone group, FIG. 2F, 4J
Description: (§1) Apoptosis was detected by Annexin V-FITC PI double staining method (flow cytometry kit (FITC, PI double staining), Sangon Biotech (Shanghai) Co., Ltd.)), and the collected cells were washed once with phosphate buffered saline (PBS) (135 mM NaCl, 2.7 mM KCl, 1.5 mM KH2PO4 and 8 mM K2HPO4, pH 7.2); the 4× binding buffer was diluted to a 1× binding buffer with deionized water, then the cells were resuspended with 195 ul of the 1× binding buffer at a cell density of 2-5×10^5/ml; 5 μl of Annexin V-FITC was added to the 195 μl of the cell resuspension and mixed, and incubated in dark at room temperature for 10 minutes; the cells were washed once with 200 μl of the 1× binding buffer, and then resuspended in 190 μl of the 1× binding buffer; 10 μl of propidium iodide (20 μg/ml) was added. A flow cytometry device (Beckman company) was used for detection, and the rate of apoptosis was analyzed using Summit software.
(§2) The cells were cultured in RPMI 1640 complete medium (Gibco company) containing 10% fetal bovine serum (FBS, Gibco company) in an incubator (Thermo company) at 5% CO2 and 37° C. until reaching logarithmic growth phase, then different concentrations of inhibitors and/or dexamethasone/ethanol/DMSO were added to the culture medium, followed by further culturing (for addition of dexamethasone/ethanol/DMSO, for 48 hours, and for addition of inhibitor, for 24 hours), and apoptosis was detected by Annexin V-FITC PI double staining and proteins were detected by Western blot, as described in Example 1.
(§3) As described in Example 3, the cells were cultured in RPMI 1640 complete medium containing 10% fetal bovine serum under 5% CO2 and 37° C. until reaching logarithmic growth phase, and then dexamethasone and different concentrations of Akt inhibitor were added to the culture medium, followed by further culture (for addition of dexamethasone/DMSO, for 48 hours, and for addition of the inhibitor, for 24 hours), the apoptosis was detected by Annexin V-FITC PI double staining method and proteins were detected by Western blot as described in Example 1 as well as the cell viability was detected by CCK-8 method.
The transfected cells were selected and passaged for 3 to 5 passages after resuscitation, with Interferin™ as transfection reagent, and the transfection procedure was performed in accordance with the instruction of the transfection reagent. In short, the cells of logarithmic growth phase were plated at 2×10^5/well, the cells were replaced with fresh complete medium (free of antibiotics) during transfection, siRNA was diluted with Opti-MEM and added with an appropriate amount of […]in™ and mixed, incubated at room temperature for 10 minutes prior to being added dropwise to the cells, and the cells were harvested at appropriate time. The cells were transfected with green fluorescein-labeled siRNA (FAM-siRNA) (siRNA at a final concentration of 20 μM, 1.25 μl/well), and the transfection efficiency was observed using a fluorescence microscope 24 hours later. The dexamethasone group was added 24 hours after transfection, followed by culture for further 24 hours, and then the cells were collected for observation; and the equal amount of anhydrous ethanol was added to the control group.

[2] = test system: Akt/FoxO3a/Bim signaling pathway in CCRF-CEM cells; experiment: Western blot of Akt/FoxO3a/Bim signaling pathway proteins in CCRF-CEM cells; assay type: cell-based, human; details: for expression of phosphorylated FoxO3a, inhibitor plus dexamethasone: 2I; for expression of p-Akt1 / expression of p-Akt2: CCRF-CEM, inhibitors 0.8 μM, FIG. 5A
Description: (§4) The control group was not added with any reagents. All experiments were performed in triplicate.
Protein detection by Western blot: in the examples of the present invention, Akt antibody (rabbit derived), phosphorylated Akt antibody (rabbit derived), FoxO3a antibody (rabbit derived), phosphorylated FoxO3a antibody (rabbit derived) and GAPDH antibody (rabbit derived) and secondary antibodies were all purchased from CST company. The cells were collected in a centrifuge tube and centrifuged at 1000 rpm, the supernatant was discarded and the cells were washed twice with PBS pre-cold at 4° C.; cell lysis buffer (150 mM NaCl, 1% NP-40, 0.1% SDS, 2 μg/ml Aprotinin, 2 μg/ml Leupeptin, 1 mM PMSF, 1.5 mM EDTA, 1 mM sodium vanadate) was added and the cells were lysed on ice for 40 minutes, the cell lysate was centrifuged at 20000 rpm, 4° C. for 15 minutes, and the supernatant was collected; a protein loading buffer for sodium dodecyl sulfate polyacrylamide (SDS-PAGE) gel electrophoresis (1.25 mL 1MTris-HCl (pH6.8), 0.5 g SDS, 25 mg BPB, 2.5 mL glycerol, 5 mL deionized water) was added, followed by boiling for 5 minutes to denature proteins; the loading buffer containing denatured proteins was applied to 10% SDS-PAGE for electrophoresis at 120 V, and then transferred to a PVDF membrane (Sangon Biotech (Shanghai) Co., Ltd.) at 130 V for 1.5 hours; after the membrane transfer was completed, the PVDF membrane was immediately rinsed with a Western washing solution (150 mmol/L NaCl, 50 mmol/L Tris-HCl (pH 7.5)) for 1-2 minutes; added with 5% non-fat milk powder (Shanghai Biotechnology Co., Ltd.), agitated gently and then blocked at room temperature for 60 minutes; a primary antibody diluted appropriately with 5% non-fat milk powder was added, and incubated overnight at room temperature with gentle agitating; the primary antibody was recovered and the membrane was washed three times with the washing solution for 5-10 minutes each; a horseradish peroxidase-labeled secondary antibody diluted appropriately with the Western washing solution was added, and incubated at room temperature for 1 hour with gentle agitating; the secondary antibody was recovered and the membrane was washed three times with the Western washing solution for 5-10 minutes each. An appropriate amount of developing solution (DAB 4 mg, 30% hydrogen peroxide 15 μL, 0.01 M Tris-Cl (pH 7.5) 5 mL) was dropped on the PVDF membrane, the image was detected using a bioluminescence image colorimeter and a gel imaging system (Thermo company), and the quantitative analysis of bands was performed using Image Lab software.
as §2
Methods: CCRF-CEM cells were cultured in RPMI 1640 complete medium (Gibco company) containing 10% fetal bovine serum (FBS, Gibco company) in an incubator (Thermo company) at 5% CO2 and 37° C. until reaching logarithmic growth phase, then DMSO, dexamethasone and different inhibitors (DMSO: 0.1%, dexamethasone: 0.1 μM, inhibitors: 0.8 μM) were added to the culture medium, and further cultured (for addition of dexamethasone or DMSO, for 48 hours, and for addition of inhibitors, for 24 hours), and the proteins were detected by Western blot, as described in Example 1.

[3] = test system: CCRF-CEM cells; experiment: Apoptosis by Annexin V-FITC PI double staining (flow cytometry), CCRF-CEM; assay type: cell-based, human; details: compared to dexamethasone alone; FIG. 2A: Akt inhibitor 1 μM, dexamethasone 1 μM, LY294002 30 μM; FIG. 2G, 2J, 2K
Description: as §4, §1, §2, §3

[4] = test system: Akt/FoxO3a/Bim proteins in L-02 cells; experiment: Western blot of Akt/FoxO3a/Bim proteins in L-02 cells; assay type: cell-based, human; details: pretreated with inhibitor 0.8 μM; FIG. 6B
Description: Protein detection by Western blot: in the examples of the present invention, Akt antibody (rabbit derived), phosphorylated Akt antibody (rabbit derived), FoxO3a antibody (rabbit derived), phosphorylated FoxO3a antibody (rabbit derived) and GAPDH antibody (rabbit derived) and secondary antibodies were all purchased from CST company. […] An appropriate amount of developing solution (DAB 4 mg, 30% hydrogen peroxide 15 μL, 0.01 M Tris-Cl (pH 7.5) 5 mL) was dropped on the PVDF membrane, the image was detected using a bioluminescence image colorimeter and a gel imaging system (Thermo company), and the quantitative analysis of bands was performed using Image Lab software.

[5] = test system: L-02 human-derived healthy liver cell line; experiment: CCK-8 viability of healthy liver cells L-02; details: FIG. 6A; for damage to liver cells: DEX 0.1 μM, inhibitors 0.8 μM
[6] = test system: Daudi cells; experiment: Apoptosis by Annexin V-FITC PI double staining, Daudi; assay type: cell-based, human; details: compared to the dexamethasone group; FIG. 2K, 4L
Description: as §1
as §2, with “1. […]” for “1.”

[7] = test system: Daudi cells; experiment: Cell viability by CCK-8 and combination index, Daudi; assay type: cell-based, human; details: for effect of inhibitor in combination with dexamethasone in B lymphoma cells (in words): as shown in Table 1
Description: as §3
(§5) The inhibitory effect of two drugs (dexamethasone and an inhibitor) alone and in combination on various lymphocyte lines was observed by CCK-8 method (CCK-8 kit), and then the half-inhibitory concentration of each drug was calculated using the median effect equation, and the combination index (CI) of the two drugs used in combination was calculated using CompuSyn software.
(1) the lymphocytes of logarithmic growth phase were taken and made to a cell suspension of 5×10^4/mL, a blank control group (5 wells), a dexamethasone group (3 wells for each concentration, triplicates), a single inhibitor group (3 wells for each concentration, triplicates), a dexamethasone plus inhibitor group (3 wells for each combined concentration, triplicates) were prepared, 180 μL of the suspension was seeded to each well of a 96-well plate, and incubated for 24 hours in an incubator at 5% CO2 and 37° C.
Based on the drug resistance of cells, the ratio of two drugs was fixed. The dexamethasone group was cultured for 48 hours while the inhibitor group was cultured for 24 hours.
(3) 10 μl of CCK-8 was added to each well, and cultured for 2 hours, and the optical density (OD) was measured at 450 nm using an automatic microplate reader, and the proliferation inhibition rate of the drug on cell was calculated.
(4) the proliferation inhibition rate was calculated according to the following equation: cell proliferation inhibition rate=(1-average OD value in the test group/average OD value in the control group)×100%, and the effect of interaction between the two drugs was analyzed by Chou-Talalay combination index method.

[8] = test system: CEM-DR cells; experiment: Cell viability by CCK-8 and combination index, CEM-DR; assay type: cell-based; details: Homo sapiens; dexamethasone alone (original); read-out: concentration of dexamethasone at which 50% viability of CEM-DR cells (IC50 value) was inhibited
Description: as §3
as §5, with “software. […]” for “software.”
(§6) (3) 10 μl of CCK-8 was added to each well, and cultured for 2 hours, and the optical density (OD) was measured at 450 nm using an automatic microplate reader, and the proliferation inhibition rate of the drug on cell was calculated. […]

[9] = Toxicity in tumor-bearing nude mice (peripheral blood test, organ pathology)
[10] = test system: Jurkat cells; experiment: Cell viability by CCK-8 and combination index, Jurkat; assay type: cell-based; details: Homo sapiens, dexamethasone alone (original), read-out: concentration of dexamethasone at which 50% viability of Jurkat cells (IC50 value) was inhibited
Description: as §3
as §5, with “software. […]” for “software.”
as §6

[11] = test system: CCRF-CEM cells; experiment: Cell viability by CCK-8 and combination index, CCRF-CEM; assay type: cell-based; details: Homo sapiens, dexamethasone alone (original), read-out: concentration of dexamethasone at which 50% viability of CCRF-CEM cells (IC50 value) was inhibited
Description: as §3
as §5, with “software. […]” for “software.”
as §6

[12] = compared to the only dexamethasone group, FIG. 2B, 2H

Akt1 siRNA: siRNA, SEQ ID NO: 5 GGCCCAACACCUUCAUCAUTT and SEQ ID NO: 6 AUGAUGAAGGUGUUGGGCCTT (chain 1 GGCCCAACACCUUCAUCAUNN; chain 2 AUGAUGAAGGUGUUGGGCCNN; listed as RNA, chemistry not given here)
apoptosis of siRNA-transfected Jurkat cells induced by dexamethasone [1]: not increased

OCC1OC(O)CC(O)C1O (stereo not drawn) [2-DG]
total FoxO3a expression, inhibitor plus dexamethasone ([2]; compared to dexamethasone alone, FIG. 2H): increased
expression of pro-apoptosis factor Bim, inhibitor plus dexamethasone [2, 12]: significantly up-regulated
expression of phosphorylated FoxO3a, inhibitor plus dexamethasone [2, 12]: decreased
apoptosis of CCRF-CEM cells induced by dexamethasone, inhibitor plus dexamethasone [3]: significantly increased

Akt2 siRNA: siRNA, SEQ ID NO: 7 GGUUCUUCCUCAGCAUCAATT and SEQ ID NO: 8 UUGAUGCUGAGGAAGAACCTT (chain 1 GGUUCUUCCUCAGCAUCAANN; chain 2 UUGAUGCUGAGGAAGAACCNN; listed as RNA, chemistry not given here)
apoptosis of siRNA-transfected Jurkat cells induced by dexamethasone [1]: significantly increased

NC1(Cc2ccc(Cl)cc2)CCN(c2ncnc3[nH]ccc23)CC1 [CCT128930]
expressions of p-Akt1 and p-Akt2 in L-02 cells [4]: correspondingly increased
damage to liver cells [5]: least damage
recovery of liver cell activity [5]: gradually recovered after 6 hours of administration
liver cell activity ([5]; after six hours of administration): 56.1%
expression of p-Akt1 [2]: increased
expression of p-Akt2 [2]: increased
apoptosis of Jurkat cells, inhibitor in combination with dexamethasone [1]: significantly increase
apoptosis of Daudi cells, inhibitor in combination with dexamethasone [6]: significantly increase
effect of inhibitor in combination with dexamethasone in B lymphoma cells (in words) [7]: additive effect

C[C@@H]1C[C@H]2[C@@H]3CCC4=CC(=O)C=C[C@]4(C)[C@@]3(F)[C@@H](O)C[C@]2(C)[C@@]1(O)C(=O)CO [dexamethasone]
damage to liver cells [5]: no damage to liver cells
IC50 [8]: 138 µM
peripheral blood leukocyte level ([9]; compared to the NC group, FIG. 6J): no significant difference
level of peripheral blood RBC ([9]; compared to the NC group, FIG. 6K): significantly increased
level of peripheral blood HGB ([9]; compared to the NC group, FIG. 6L): significantly increased
peripheral blood platelet level ([9]; compared to the NC group, FIG. 6M): no significant difference
blood glucose level ([9]; compared to the NC group, FIG. 6N): no significant difference
peripheral blood creatinine level ([9]; compared to the NC group, FIG. 6O): no significant difference
IC50 [10]: 224 µM
IC50 [11]: 0.3 µM
IC50 ([7]; Homo sapiens, Daudi, dexamethasone alone (original), read-out: concentration of dexamethasone at which 50% viability of Daudi cells (IC50 value) was inhibited): 225 µM

Cc1[nH]nc2ccc(-c3cncc(OC[C@@H](N)Cc4ccccc4)c3)cc12 [A-674563]
expressions of p-Akt1 and p-Akt2 in L-02 cells [4]: correspondingly increased
damage to liver cells [5]: most serious damage
recovery of liver cell activity [5]: did not recover within 48-hour
liver pathology (HE staining) ([9]; 7-day administration, FIG. 8A, 8B): did not cause morphological changes of the liver tissues
level of TBIL ([9]; compared to the NC group, FIG. 6I): significantly increased
level of peripheral blood AST ([9]; compared to the normal saline group (NC), FIG. 3F, 6H): significantly increased
expression of p-Akt1 [2]: effectively inhibited
expression of p-Akt2 [2]: compensatory increase
apoptosis of Jurkat cells, inhibitor in combination with dexamethasone [1]: significantly increase
apoptosis of Daudi cells, inhibitor in combination with dexamethasone [6]: significantly increase
effect of inhibitor in combination with dexamethasone in B lymphoma cells (in words) [7]: low degree of synergistic effect

C[C@H](NC(=O)Cc1cc(F)cc(F)c1)C(=O)N[C@H](C(=O)OC(C)(C)C)c1ccccc1 [dapt]
expression of phosphorylated FoxO3a, inhibitor plus dexamethasone [2, 12]: significantly reduced
apoptosis of CCRF-CEM cells induced by dexamethasone, inhibitor plus dexamethasone [3]: significantly increased
